Source: paper PMC7915026, “Sulfaguanidine Hybrid with Some New Pyridine-2-One Derivatives: Design, Synthesis, and Antimicrobial Activity against Multidrug-Resistant Bacteria as Dual DNA Gyrase and DHFR Inhibitors” (Antibiotics, 2021)
≈ marks a conversion by molar mass, not a printed value. Like-named read-outs stand apart in the source and are kept apart here.

Columns and labels:
E. faecalis ATCC 29212 [1] = assay: MIC and MBC determination; format: cell-based; conditions: Enterococcus faecalis, ATCC29212, E. faecalis
S. aureus ATCC 29213 [2] = assay: MIC and MBC determination; format: cell-based; conditions: Staphylococcus aureus, ATCC29213, S. aureus
S. aureus ATCC 33591 [3] = assay: Inhibition zone against multidrug-resistant bacteria; format: cell-based; conditions: MDRB S. aureus ATCC 33591
Source text: (§1) Norfloxacin was used as a positive control for the multidrug resistance study.
(§2) The antimicrobial activity performed at the bacteriology laboratory, Botany and Microbiology Department, Faculty of Science, Al-Azhar University, Cairo, Egypt. The inhibition zone (IZ) of the tested derivatives expressed as the diameter (mm) according to the agar plate diffusion method.

S. aureus ATCC 43300 [4] = assay: as above; format: cell-based; conditions: MDRB S. aureus ATCC 43300
Source text: as §1, §2

E. coli ATCC BAA-196 [5] = assay: as above; format: cell-based; conditions: MDRB E. coli ATCC BAA-196
Source text: as §1, §2

[6] = test system: P. aeruginosa ATCC BAA-2111; assay: as above; format: cell-based; conditions: MDRB P. aeruginosa ATCC BAA-2111
Source text: as §1, §2

S. aureus ATCC 33591 [7] = assay: MIC and MBC against multidrug-resistant strains; format: cell-based; conditions: Staphylococcus aureus, ATCC33591, S. aureus ATCC 33591
Source text: as §1
(§3) The experiment was repeating for three-times.

S. aureus ATCC 43300 [8] = assay: MIC and MBC against multidrug-resistant strains; format: cell-based; conditions: Staphylococcus aureus, ATCC43300, S. aureus ATCC 43300
Source text: as §1, §3

E. coli ATCC BAA-196 [9] = assay: MIC and MBC against multidrug-resistant strains; format: cell-based; conditions: E. coli ATCC BAA-196
Source text: as §1, §3

[10] = test system: P. aeruginosa ATCC BAA-2111; assay: MIC and MBC against multidrug-resistant strains; format: cell-based; conditions: P. aeruginosa ATCC BAA-2111
Source text: as §1, §3

[11] = test system: Salmonella typhi (S. typhi ATCC 6539); assay: microbe, parasite or virus in culture; format: cell-based; conditions: Salmonella enterica, Salmonella typhi
E. coli ATCC 25922 [12] = assay: MIC and MBC determination; format: cell-based; conditions: Escherichia coli, ATCC25922, E. coli
B. subtilis ATCC 6633 [13] = assay: MIC and MBC determination; format: cell-based; conditions: Bacillus subtilis, ATCC6633, B. subtilis
C. albicans (ATCC 10231) [14] = assay: MIC and MFC determination; format: cell-based
E. faecalis ATCC 29212 [15] = assay: Inhibition zone, paper disk/agar diffusion; format: cell-based; conditions: E. faecalis; Na = no activity
Source text: as §2

[16] = test system: F. oxysporum (RCMB 008002); assay: Inhibition zone, paper disk/agar diffusion; format: cell-based; conditions: Na = no activity
Source text: as §2

E. coli ATCC 25922 [17] = assay: Inhibition zone, paper disk/agar diffusion; format: cell-based; conditions: E. coli; Na = no activity
Source text: as §2

S. aureus ATCC 29213 [18] = assay: Inhibition zone, paper disk/agar diffusion; format: cell-based; conditions: S. aureus; Na = no activity
Source text: as §2

B. subtilis ATCC 6633 [19] = assay: Inhibition zone, paper disk/agar diffusion; format: cell-based; conditions: B. subtilis; Na = no activity
Source text: as §2

P. aeruginosa ATCC 27853 [20] = assay: Inhibition zone, paper disk/agar diffusion; format: cell-based; conditions: P. aeruginosa; Na = no activity
Source text: as §2

[21] = test system: F. oxysporum (RCMB 008002); assay: MIC and MFC determination; format: cell-based
S. aureus DNA gyrase = S. aureus DNA gyrase (Staphylococcus aureus, UniProt P0A0K8+P20831); assay: In vitro DNA gyrase supercoiling enzymatic assay; format: biochemical
Sequence of S. aureus DNA gyrase (P20831 whole entry): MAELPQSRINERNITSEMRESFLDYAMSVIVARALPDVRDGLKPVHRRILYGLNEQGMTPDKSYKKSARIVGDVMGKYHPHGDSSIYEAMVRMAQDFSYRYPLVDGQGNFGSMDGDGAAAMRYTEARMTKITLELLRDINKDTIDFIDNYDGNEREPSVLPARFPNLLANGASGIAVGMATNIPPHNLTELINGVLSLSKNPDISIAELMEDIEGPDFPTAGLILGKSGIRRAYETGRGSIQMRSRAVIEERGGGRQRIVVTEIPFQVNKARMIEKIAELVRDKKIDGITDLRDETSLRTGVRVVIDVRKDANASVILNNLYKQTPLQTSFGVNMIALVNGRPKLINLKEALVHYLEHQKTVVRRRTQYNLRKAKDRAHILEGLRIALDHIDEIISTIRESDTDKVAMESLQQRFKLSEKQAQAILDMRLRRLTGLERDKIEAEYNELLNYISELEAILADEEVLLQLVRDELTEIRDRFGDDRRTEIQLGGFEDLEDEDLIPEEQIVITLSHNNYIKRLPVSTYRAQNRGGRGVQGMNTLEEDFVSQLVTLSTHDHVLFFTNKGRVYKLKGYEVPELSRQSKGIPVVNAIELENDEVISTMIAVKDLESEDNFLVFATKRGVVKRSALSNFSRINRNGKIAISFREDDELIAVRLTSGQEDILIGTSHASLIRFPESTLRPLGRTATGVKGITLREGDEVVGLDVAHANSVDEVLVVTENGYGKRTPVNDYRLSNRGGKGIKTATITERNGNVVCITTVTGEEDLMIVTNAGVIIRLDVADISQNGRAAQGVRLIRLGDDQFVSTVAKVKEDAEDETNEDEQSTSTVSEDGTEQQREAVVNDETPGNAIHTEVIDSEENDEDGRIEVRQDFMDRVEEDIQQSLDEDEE
Sequence of S. aureus DNA gyrase (P0A0K8 whole entry): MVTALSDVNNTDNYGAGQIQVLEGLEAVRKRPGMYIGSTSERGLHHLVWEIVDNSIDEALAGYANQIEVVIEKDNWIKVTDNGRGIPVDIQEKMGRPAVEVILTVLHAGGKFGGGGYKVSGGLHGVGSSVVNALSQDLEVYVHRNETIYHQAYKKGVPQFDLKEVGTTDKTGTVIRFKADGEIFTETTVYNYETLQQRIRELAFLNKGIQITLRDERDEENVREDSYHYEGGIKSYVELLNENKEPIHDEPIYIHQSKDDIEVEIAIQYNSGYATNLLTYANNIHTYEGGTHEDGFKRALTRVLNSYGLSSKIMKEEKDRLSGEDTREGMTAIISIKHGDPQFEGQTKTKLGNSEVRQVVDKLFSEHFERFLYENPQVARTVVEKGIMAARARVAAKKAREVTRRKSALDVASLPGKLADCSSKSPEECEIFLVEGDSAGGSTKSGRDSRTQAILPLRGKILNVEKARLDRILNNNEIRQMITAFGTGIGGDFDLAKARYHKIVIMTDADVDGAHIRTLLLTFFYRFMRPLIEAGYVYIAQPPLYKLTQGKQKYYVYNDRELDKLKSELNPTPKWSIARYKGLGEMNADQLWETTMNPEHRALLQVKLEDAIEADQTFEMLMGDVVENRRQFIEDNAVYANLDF

P. aeruginosa ATCC 27853 [22] = assay: MIC and MBC determination; format: cell-based; conditions: Pseudomonas aeruginosa, ATCC27853, P. aeruginosa
S. typhi ATCC 6539 = assay: Inhibition zone, paper disk/agar diffusion; format: cell-based; conditions: S. typhi; Na = no activity
Source text: as §2

C. albicans (ATCC 10231) [23] = assay: Inhibition zone, paper disk/agar diffusion; format: cell-based; conditions: Na = no activity
Source text: as §2

Structure (SMILES): COc1ccc(/C=C(\C#N)C(=O)Nc2ccc(S(=O)(=O)NC(=N)N)cc2)cc1 [Compound 2b, N-(4-(N-Carbamimidoylsulfamoyl)phenyl)-2-cyano-3-(4-methoxyphenyl) acrylamide]
- MBC (E. faecalis ATCC 29212 [1]; read-out: MBC): 46.3 ± 0.74 µM (≈ 18.5 µg/mL)
- MIC (E. faecalis ATCC 29212 [1]; read-out: MIC): 23.1 ± 0.61 µM (≈ 9.25 µg/mL)
- MBC (S. aureus ATCC 29213 [2]; read-out: MBC): 78.2 ± 0.87 µM (≈ 31.2 µg/mL)
- MIC (S. aureus ATCC 29213 [2]; read-out: MIC): 39.1 ± 1.67 µM (≈ 15.6 µg/mL)
- Mean Diameter of Inhibition Zone (S. aureus ATCC 33591 [3]): 21 ± 0.11 mm
- Mean Diameter of Inhibition Zone (S. aureus ATCC 43300 [4]): 20 ± 0.34 mm
- Mean Diameter of Inhibition Zone (E. coli ATCC BAA-196 [5]): 22 ± 0.85 mm
- Mean Diameter of Inhibition Zone [6]: 19 ± 0.16 mm
- MBC (S. aureus ATCC 33591 [7]; read-out: MBC): 18.8 ± 0.21 µM (≈ 7.5 µg/mL)
- MIC (S. aureus ATCC 33591 [7]; read-out: MIC): 9.38 ± 0.35 µM (≈ 3.75 µg/mL)
- MBC (S. aureus ATCC 43300 [8]; read-out: MBC): 39.1 ± 0.54 µM (≈ 15.6 µg/mL)
- MIC (S. aureus ATCC 43300 [8]; read-out: MIC): 19.6 ± 0.52 µM (≈ 7.81 µg/mL)
- MBC (E. coli ATCC BAA-196 [9]): 9.38 ± 0.74 µM (≈ 3.75 µg/mL)
- MIC (E. coli ATCC BAA-196 [9]): 4.69 ± 0.45 µM (≈ 1.87 µg/mL)
- MBC (E. coli ATCC BAA-196 [9]; Escherichia coli, ATCCBAA196, read-out: MBC): 9.38 µM (≈ 3.75 µg/mL)
- MIC (E. coli ATCC BAA-196 [9]; Escherichia coli, ATCCBAA196, read-out: MIC): 4.69 µM (≈ 1.87 µg/mL)
- MBC [10]: 18.77 ± 0.87 µM (≈ 7.5 µg/mL)
- MIC [10]: 9.38 ± 0.47 µM (≈ 3.75 µg/mL)
- MBC ([10]; Pseudomonas aeruginosa, ATCCBAA2111, read-out: MBC): 18.8 µM (≈ 7.5 µg/mL)
- MIC ([10]; Pseudomonas aeruginosa, ATCCBAA2111, read-out: MIC): 9.38 µM (≈ 3.75 µg/mL)
- MBC ([11]; read-out: MBC): 70.4 ± 0.85 µM (≈ 28.1 µg/mL)
- MIC ([11]; read-out: MIC): 39.1 ± 0.36 µM (≈ 15.6 µg/mL)
- MBC (E. coli ATCC 25922 [12]; read-out: MBC): 219.1 ± 2.14 µM (≈ 87.5 µg/mL)
- MIC (E. coli ATCC 25922 [12]; read-out: MIC): 156 ± 2.65 µM (≈ 62.5 µg/mL)
- MBC (B. subtilis ATCC 6633 [13]; read-out: MBC): 35.2 ± 1.25 µM (≈ 14 µg/mL)
- MIC (B. subtilis ATCC 6633 [13]; read-out: MIC): 19.6 ± 0.39 µM (≈ 7.81 µg/mL)
- MFC/MIC (C. albicans (ATCC 10231) [14]): <2
- MFC (C. albicans (ATCC 10231) [14]; Candida albicans, ATCC10231, read-out: MFC): 133 ± 1.65 µM (≈ 53.1 µg/mL)
- MIC (C. albicans (ATCC 10231) [14]; Candida albicans, ATCC10231, read-out: MIC): 78.2 ± 0.95 µM (≈ 31.2 µg/mL)
- Mean Diameter of the Inhibition Zone (E. faecalis ATCC 29212 [15]): 24 ± 0.35 mm
- Mean Diameter of the Inhibition Zone [16]: 17 ± 0.50 mm
- Mean Diameter of the Inhibition Zone (E. coli ATCC 25922 [17]): 23 ± 0.2 mm
- Mean Diameter of the Inhibition Zone (S. aureus ATCC 29213 [18]): 21 ± 0.3 mm
- Mean Diameter of the Inhibition Zone (B. subtilis ATCC 6633 [19]): 25 ± 0.87 mm
- Mean Diameter of the Inhibition Zone (P. aeruginosa ATCC 27853 [20]): 21 ± 0.55 mm
- MFC/MIC [21]: <2
- MFC ([21]; Fusarium oxysporum, RCMB008002, read-out: MFC): 222.3 ± 1.65 µM (≈ 88.8 µg/mL)
- MIC ([21]; Fusarium oxysporum, RCMB008002, read-out: MIC): 139 ± 1.53 µM (≈ 55.5 µg/mL)
- IC50 (S. aureus DNA gyrase): 29.1 ± 1.93 µM
- MBC (P. aeruginosa ATCC 27853 [22]; read-out: MBC): 133 ± 1.02 µM (≈ 53.1 µg/mL)
- MIC (P. aeruginosa ATCC 27853 [22]; read-out: MIC): 78.2 ± 1.24 µM (≈ 31.2 µg/mL)

Structure (SMILES): N#C/C(=C\c1ccc(O)cc1)C(=O)Nc1ccc(S(=O)(=O)NC(=N)N)cc1 [Compound 2c, N-(4-(N-Carbamimidoylsulfamoyl)phenyl)-2-cyano-3-(4-hydroxyphenyl) acrylamide]
- Mean Diameter of the Inhibition Zone (E. faecalis ATCC 29212 [15]): 17 ± 0.37 mm
- Mean Diameter of the Inhibition Zone [16]: 14 ± 0.5 mm
- Mean Diameter of the Inhibition Zone (S. typhi ATCC 6539): 17 ± 0.24 mm
- Mean Diameter of the Inhibition Zone (C. albicans (ATCC 10231) [23]): 16 ± 0.52 mm
- Mean Diameter of the Inhibition Zone (E. coli ATCC 25922 [17]): 19 ± 0.75 mm
- Mean Diameter of the Inhibition Zone (S. aureus ATCC 29213 [18]): 21 ± 0.85 mm
- Mean Diameter of the Inhibition Zone (B. subtilis ATCC 6633 [19]): 20 ± 0.38 mm
- Mean Diameter of the Inhibition Zone (P. aeruginosa ATCC 27853 [20]): 20 ± 0.42 mm
- melting point: 256 to 258 °C
